Test results as given in patent US20060003016A1, “Therapeutic method for endolymphatic hydrops associated diseases” (priority 2004, published 2006).
Where a name gives a salt, the structure may show the parent alone.

Columns and labels:
[1] = test system: patients with Meniere's disease and endolymphatic hydrops associated diseases; assay: Clinical course of vertigo, aural fullness, tinnitus and hearing in clinical cases; type: in vivo, patient
Excerpt: Therapeutic method of our invention is always performed after general examinations and standard laboratory examinations, such as blood pressure, plasma electrolytes, and urine osmolality. After consideration of body weight, age, sex, and life style, we directed the patients to take adequate water (see below) every day in combination with short-term application with isosorbite®. During the initial stage of the water intake method, recommended volume of water intake for adult male, weighing 60 kg, is calculated as 1.8-2.1 l per day according to the following formula (F 1). […] They seem to be nervous and live under the very strong psychological pressure.
The present invention is explained in detail by mentioning clinical cases.

[2] = test system: rats; settings: arginine-vasopressin induced rats; cited from earlier work
[3] = test system: guinea pig; settings: after administration of AVP; cited from earlier work
[4] = case 3, isosorbide 63 g t.d.s. and difenidol hydrochloride 75 mg t.d.s. together for 6 days, July 28, 2000
[5] = case 3, isosorbide 63 g t.d.s. and difenidol hydrochloride 75 mg t.d.s. together for 14 days, March 2000

In the case of O[C@@H]1CO[C@H]2[C@@H]1OC[C@@H]2O [isosorbide, reference compound], the “time until rotatory vertigo was improved” value ([1]; case 1, attack of Jan. 24, 2003, isosorbide 63 g t.d.s. with water intake 2 lit./day continued) is reported as at most 3 h, the right ear hearing ([1]; case 1, isosorbide 63 g t.d.s. for one week, reexamination Dec. 6, 2002) is reported as “improved to the normal level” and the left hearing [1, 4] is reported as “improved to normal range”. The left hearing [1, 5] was “improved” and the right hearing ([1]; case 4, isosorbide 63 g t.d.s. orally for 2 weeks) was “no improvement”.

For OC(CCCN1CCCCC1)(c1ccccc1)c1ccccc1 [difenidol hydrochloride, reference compound], the left hearing [1, 4] was “improved to normal range” and the left hearing [1, 5] was “improved”.

For NC(=O)CC[C@@H]1NC(=O)[C@H](Cc2ccccc2)NC(=O)[C@H](Cc2ccc(O)cc2)NC(=O)[C@@H](N)CSSC[C@@H](C(=O)N2CCC[C@H]2C(=O)N[C@@H](CCCN=C(N)N)C(=O)NCC(N)=O)NC(=O)[C@H](CC(N)=O)NC1=O [AVP, arginine vasopressin], the “ABR (auditory brainstem evoked response) threshold” value [2] is listed as “increase in ABR (auditory brainstem evoked response) threshold” and the endolymphatic hydrops [3] is listed as “endolymphatic hydrops was produced”.

With CCCCC[C@H](O)/C=C/[C@H]1[C@H](O)CC(=O)[C@@H]1CCCCCCC(=O)O [PGE1, reference compound] the “low frequency sensorineural hearing loss of the left ear” value ([1]; case 5, steroid, VB12 and vasodilator (prostaglandin:PGE1) together) was “no improvement”.
